Source: the supplement of paper PMC10307832

What was measured:
Test in all cases: relative viability (nuclei count vs DMSO), 5 days (fraction); higher = more cells survive
[1] = compound: NCC(=O)Nc1ccc(-n2nc(C(F)(F)F)cc2-c2ccc3c(ccc4ccccc43)c2)cc1 + N=C(N)NC(=N)NCCc1ccccc1 [Phenformin] (partner 250 µM)
Outline: (§1)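 Each reported value is a median over duplicate plates. It expresses relative viability: treated-well nuclei count divided by vehicle-well nuclei count. Lung cancer cell lines in 1536-well plates were dosed by pin tool a day after seeding, alone with one drug or with a fixed anchor-drug dose plus five library-drug doses (not always all listed) in √10 steps, and nuclei were counted after 5 days.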

[2] = compound: C1CSC2=C(C(=O)N1)SC3=C2C=C(C=C3)O [kb NB 142-70] + CC1(C)CCC(c2ccc(Cl)cc2)=C(CN2CCN(c3ccc(C(=O)NS(=O)(=O)c4ccc(N[C@H](CCN5CCOCC5)CSc5ccccc5)c(S(=O)(=O)C(F)(F)F)c4)cc3)CC2)C1 [Navitoclax] (partner 0.5 µM)
Outline: as §1

[3] = compound: C1CSC2=C(C(=O)N1)SC3=C2C=C(C=C3)O [kb NB 142-70] + N=C(N)NC(=N)NCCc1ccccc1 [Phenformin] (partner 250 µM)
Outline: as §1

[4] = compound: C1CSC2=C(C(=O)N1)SC3=C2C=C(C=C3)O [kb NB 142-70]
Outline: (§2)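 Viability here means nuclei in treated wells divided by nuclei in vehicle wells, reported as the median across plates. Only plates with control CV below 25% and at least one doubling passed. Lung cancer cell lines in 1536-well plates were exposed to five √10-spaced library-drug doses for 5 days and counted from 4× Hoechst images in MetaXpress.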

[5] = compound: NCC(=O)Nc1ccc(-n2nc(C(F)(F)F)cc2-c2ccc3c(ccc4ccccc43)c2)cc1
Outline: as §2

Row | Cell Line | relative viability ([1]; first compound 0.02 µM) | relative viability ([1]; first compound 0.06325 µM) | relative viability ([1]; first compound 0.2 µM) | relative viability ([1]; first compound 0.6325 µM) | relative viability ([1]; first compound 2 µM) | relative viability ([2]; first compound 0.1 µM) | relative viability ([2]; first compound 1 µM) | relative viability ([2]; first compound 3.162 µM) | relative viability ([3]; first compound 0.1 µM) | relative viability ([3]; first compound 1 µM) | relative viability ([3]; first compound 3.162 µM) | relative viability ([4]; 0.1 µM) | relative viability ([4]; 1 µM) | relative viability ([4]; 3.162 µM) | relative viability ([5]; 0.02 µM) | relative viability ([5]; 0.06325 µM) | relative viability ([5]; 0.2 µM) | relative viability ([5]; 0.6325 µM) | relative viability ([5]; 2 µM)
1 | NCI-H2009 | 0.459 | 0.503 | 0.482 | 0.479 | 0.525 | 1.13 | 1.22 | 0.889 | 0.477 | 0.547 | 0.429 | 1.06 | 1.07 | 0.788 | 0.952 | 1.02 | 1.07 | 1 | 1.05
2 | NCI-H2405 | 0.402 | 0.399 | 0.416 | 0.38 | 0.475 | 0.966 | 0.863 | 0.679 | 0.397 | 0.375 | 0.356 | 0.985 | 0.995 | 0.7 | 1 | 1.02 | 1.09 | 0.961 | 1.06
3 | NCI-H1755 | 0.582 | 0.587 | 0.577 | 0.606 | 0.607 | 0.996 | 1.01 | 1.05 | 0.586 | 0.587 | 0.638 | 0.988 | 0.986 | 1.02 | 1.01 | 1.03 | 1.04 | 0.966 | 0.986
4 | HCC-78 | 0.758 | 0.691 | 0.713 | 0.649 | 0.714 | 0.752 | 0.742 | 0.652 | 0.72 | 0.673 | 0.651 | 1.08 | 0.998 | 0.877 | 0.993 | 0.93 | 1.04 | 0.944 | 0.968
5 | LOU-NH91 | 0.652 | 0.748 | 0.686 | 0.671 | 0.778 | 0.753 | 0.632 | 0.438 | 0.615 | 0.741 | 0.632 | 0.959 | 0.974 | 0.63 | 0.963 | 1 | 0.951 | 0.965 | 1.06
6 | NCI-H3122 | 0.37 | 0.432 | 0.364 | 0.386 | 0.377 | 0.987 | 1.04 | 0.972 | 0.412 | 0.396 | 0.347 | 0.962 | 0.982 | 0.969 | 1.01 | 1.02 | 1.01 | 1.01 | 1
7 | HCC-827 | 0.397 | 0.431 | 0.406 | 0.385 | 0.385 | 1.04 | 1.02 | 1.02 | 0.415 | 0.387 | 0.339 | 1.07 | 1.03 | 0.971 | 1.03 | 1.05 | 0.987 | 1.02 | 1.1
8 | SK-LU-1 | 0.514 | 0.584 | 0.617 | 0.502 | 0.55 | 0.747 | 0.642 | 0.178 | 0.546 | 0.451 | 0.265 | 0.994 | 0.982 | 0.664 | 0.949 | 1.1 | 1.2 | 1.01 | 1.07
9 | NCI-H1975 | 0.392 | 0.375 | 0.439 | 0.424 | 0.422 | 1.14 | 1.15 | 0.761 | 0.394 | 0.366 | 0.235 | 0.902 | 0.982 | 0.656 | 0.91 | 0.887 | 1.03 | 0.972 | 1.03
10 | NCI-H1651 | 0.313 | 0.387 | 0.327 | 0.371 | 0.313 | 1.07 | 1.03 | 0.39 | 0.327 | 0.321 | 0.205 | 1.02 | 0.975 | 0.821 | 1 | 0.947 | 0.978 | 0.956 | 0.998
11 | NCI-H441 | 0.898 | 0.819 | 0.954 | 1.01 | 0.844 | 0.683 | 0.369 | 0.34 | 0.881 | 0.894 | 0.633 | 0.975 | 0.967 | 0.637 | 0.977 | 1.04 | 1.28 | 0.947 | 0.956
12 | LCLC-97TM1 | 0.397 | 0.434 | 0.466 | 0.442 | 0.442 | 0.457 | 0.29 | 0.307 | 0.407 | 0.462 | 0.416 | 1.03 | 0.956 | 0.489 | 0.995 | 1.1 | 1 | 1.01 | 0.958
13 | NCI-H727 | 0.63 | 0.606 | 0.561 | 0.41 | 0.728 | 0.522 | 0.397 | 0.263 | 0.585 | 0.714 | 0.605 | 1.09 | 1.13 | 1.02 | 0.858 | 1.16 | 1.02 | 0.922 | 1.09
14 | NCI-H1355 | 0.465 | 0.497 | 0.419 | 0.483 | 0.522 | 1.02 | 0.881 | 0.936 | 0.485 | 0.451 | 0.453 | 1.02 | 0.885 | 1.01 | 0.971 | 1.07 | 0.883 | 1.02 | 0.995
15 | HOP-62 | 0.683 | 0.7 | 0.644 | 0.608 | 0.735 | 0.994 | 1.11 | 0.968 | 0.666 | 0.663 | 0.534 | 1.03 | 1.04 | 0.911 | 1.03 | 0.997 | 0.943 | 0.928 | 1.05
16 | NCI-H2085 | 0.689 | 0.786 | 0.652 | 0.702 | 0.72 | 1.18 | 1.05 | 0.738 | 0.706 | 0.756 | 0.371 | 0.964 | 0.952 | 0.712 | 0.961 | 1.01 | 1.03 | 0.982 | 1.01
